Tested on: Phytophthora capsici
Experiment: Efficacy of WSP and WDG in controlling Phytophthora capsici leaf blight on tomato plants (Example VI)
Format: in vivo
Settings: 1.24 g/L; tomato cv Roma; rated 7 days post inoculation
Protocol: Reynoutria sachalinensis extract was formulated as WSP and as WDG. Both formulations were evaluated for their efficacy in controlling Phytophthora leaf blight on tomato. The cv “Roma” was planted in greenhouse till two true leaf stage. The isolate of P. capsici was grown on lima bean media (150 g lima bean was autoclaved in 500 ml water at 121° C. for 0.5 h and filtered through two layers of cheese cloth to remove seed coats. 20 g of agar was added to the filtrate and increase the volume to 1000 ml. The media was autoclaved at 121° C. for 15 min) for 7 days and the sporangia were washed off with sterile water. The sporangia suspension was incubated at room temperature (about 25° C.) for 1-2 h to release zoospores. The suspension was adjusted to 1.0×10^5 spores/ml. There were three single plant replications per treatments. For each treatment, 3 ml treatment/plant was applied with hand held sprayer. After the treatments dried up in a container for incubation, 10 ml of spore suspension was applied uniformly onto all the plants. The container was sealed to maintain high moisture and the plants were incubated at 25° C. in darkness for 3 days. Disease was rated 7 days post inoculation.

In the case of `COCC(=O)N(c1c(C)cccc1C)[C@H](C)C(=O)OC` [mefenoxam (Ridomil), mefenoxam], the “% Control” value is reported as 95.9% and the “Severity (%, mean)” value is reported as 2.3%.
